Data from article PMC7265434, “Zika Virus NS3 Protease Pharmacophore Anchor Model and Drug Discovery” (Scientific Reports, 2020).

Biological target: T1, ZIKV NS2B/NS3 protease (Zika virus, UniProt Q32ZE1)
T1 construct: cut from ZIKV genome polyprotein
Experiment: fluorogenic protease assay, AMC release
Assay type: biochemical

T1 sequence (Q32ZE1 1499-1668): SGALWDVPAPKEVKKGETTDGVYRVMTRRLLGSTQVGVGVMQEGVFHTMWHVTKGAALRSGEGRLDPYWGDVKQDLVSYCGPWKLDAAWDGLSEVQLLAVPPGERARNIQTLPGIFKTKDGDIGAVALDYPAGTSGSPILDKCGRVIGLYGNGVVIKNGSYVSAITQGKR
T1 sequence (Q32ZE1 1417-1463): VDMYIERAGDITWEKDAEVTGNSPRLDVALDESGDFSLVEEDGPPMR

Structure (SMILES) | IC50 [µM]
C=C[C@@H]1C[C@]1(NC(=O)[C@@H]1C[C@@H](Oc2ncc(OC)c3ccc(Cl)cc23)CN1C(=O)[C@@H](NC(=O)OC(C)(C)C)C(C)(C)C)C(=O)NS(=O)(=O)C1CC1 [Asunaprevir] | 6
COc1ccc2c(O[C@@H]3C[C@H]4C(=O)N[C@]5(C(=O)NS(=O)(=O)C6CC6)C[C@H]5/C=C\CCCCN(C)C(=O)[C@@H]4C3)cc(-c3nc(C(C)C)cs3)nc2c1C [Simeprevir] | 2.6
